Values quoted from earlier work, collected in US20040023937A1, “Anti-cancer formulation” (Greystone Medical Group, Inc., priority 2002, published 2004).

Legend:
human fibrosarcoma cells = details: reported
MMP-2 = details: second of two gelatin degrading MMP's; reported
MMP-9 = details: gelatin degrading matrix metalloproteinase; mechanism reported to be thought to involve it

**Q.** Which anti-invasive activity (human fibrosarcoma cells) does the source give for C[C@H]1[C@H](C)CC[C@]2(C(=O)O)CC[C@]3(C)C(=CC[C@@H]4[C@@]5(C)CC[C@H](O)C(C)(C)[C@@H]5CC[C@]43C)[C@H]12 [Ursolic acid] here?
**A.** anti-invasive activity

**Q.** And the “effect on MMP-2” value (MMP-2)?
**A.** no effect

**Q.** And the “down-regulation of MMP-9” value (MMP-9)?
**A.** down-regulation
